Assay results reported in patent publication US8772323B2, “Benzoxazole- and tetrahydrobenzoxazole-substituted pyridazinones as GPR119 agonists” (Boehringer Ingelheim International GmbH, priority 2010, dated 2014).
Structures can show the parent of a compound that is named as a salt.

Target: human GPR119 (Homo sapiens (Human), UniProt Q8TDV5)
Test: AlphaScreen cAMP assay in Min-6/hGPR119 cells (GPR119 activation, intracellular cAMP)
Type: cell-based
Conditions: MIN6 cells stably transfected with human GPR119; 45 minutes' incubation at RT; AlphaScreen cAMP Assay Kit
Summary of the method: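 cAMP quantified by AlphaScreen after 45 min room-temperature compound exposure in HEPES/bicarbonate buffer, pH 7.4, containing 0.5 mM IBMX, 0.1% BSA and 1% DMSO final. Cells were Min-6 stably transfected with human GPR119, seeded 24 h beforehand.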

Sequence of human GPR119 (Q8TDV5 whole entry): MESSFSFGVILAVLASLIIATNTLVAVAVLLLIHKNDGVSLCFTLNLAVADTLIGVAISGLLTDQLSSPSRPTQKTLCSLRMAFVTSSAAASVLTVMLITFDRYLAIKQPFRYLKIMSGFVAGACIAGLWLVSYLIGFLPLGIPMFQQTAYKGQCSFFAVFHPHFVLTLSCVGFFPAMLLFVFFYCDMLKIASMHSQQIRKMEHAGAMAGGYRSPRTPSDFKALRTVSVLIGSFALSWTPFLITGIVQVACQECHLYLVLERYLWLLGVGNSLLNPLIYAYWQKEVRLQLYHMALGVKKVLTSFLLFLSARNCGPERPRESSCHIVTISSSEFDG

SMILES | EC50
CCC1CC(=O)NN=C1c1ccc2nc(-c3ccc(OCCN(C(C)C)C(C)C)cc3)oc2c1 (stereo not shown) [Example 57, 6-{2-[4-(2-diisopropylamino-ethoxy)-phenyl]-benzoxazol-6-yl}-5-ethyl-4,5-dihydro-2H-pyridazin-3-one] | 37 nM
CCC1CC(=O)NN=C1c1ccc2nc(-c3ccc(/C=C/c4ccccc4)cc3)oc2c1 (stereo not shown) [Example 75, 5-ethyl-6-{2-[4-styryl-phenyl]-benzoxazol-6-yl}-4,5-dihydro-2H-pyridazin-3-one] | 384 nM
CO[C@@H]1CC(=O)NN=C1c1ccc2nc(-c3ccccc3)oc2c1 [Example 27, (R)-5-methoxy-6-(2-phenyl-benzoxazol-6-yl)-4,5-dihydro-2H-pyridazin-3-one] | 444 nM
O=C1NN=C(c2ccc3nc(-c4ccc(OCCN5CCOCC5)cc4)oc3c2)C2CC12 (stereo not shown) [Example 137, 5-{2-[4-(2-morpholin-4-yl-ethoxy)-phenyl]-benzoxazol-6-yl}-3,4-diaza-bicyclo[4.1.0]hept-4-en-2-one] | 497 nM
CCC1CC(=O)NN=C1c1ccc2nc(-c3ccc(OC4CCNCC4)cc3)oc2c1 (stereo not shown) [Example 72, 5-ethyl-6-{2-[4-(piperidin-4-yloxy)-phenyl]-benzoxazol-6-yl}-4,5-dihydro-2H-pyridazin-3-one hydrochloride] | 1810 nM
CCC1CC(=O)NN=C1c1ccc2nc(-c3cccc(OCc4ccncc4)c3)oc2c1 (stereo not shown) [Example 150, 5-ethyl-6-{2-[3-(pyridin-4-ylmethoxy)-phenyl]-benzoxazol-6-yl}-4,5-dihydro-2H-pyridazin-3-one] | 1260 nM
CCC1CC(=O)NN=C1c1ccc2nc(-c3ccc(OCCN(C)C(C)C)cc3)oc2c1 (stereo not shown) [Example 219, 5-ethyl-6-(2-{4-[2-(isopropyl-methyl-amino)-ethoxy]-phenyl}-benzoxazol-6-yl)-4,5-dihydro-2H-pyridazin-3-one] | 438 nM
CCC1CC(=O)NN=C1c1ccc2nc(-c3ccc(OCCN4[C@@H](C)CC[C@@H]4C)cc3)oc2c1 (stereo in doubt) [Example 250, 6-(2-{4-[2-((2R,5R)-trans-2,5-dimethylpyrrolidin-1-yl)-ethoxy]-phenyl}-benzoxazol-6-yl)-5-ethyl-4,5-dihydro-2H-pyridazin-3-one] | 235 nM
C[C@@H]1C(c2ccc3nc(-c4ccccc4)oc3c2)=NNC(=O)[C@@H]1C [Example 25, (4R,5S)-4,5-dimethyl-6-(2-phenyl-benzoxazol-6-yl)-4,5-dihydro-2H-pyridazin-3-one] | 2370 nM
CCC1CC(=O)NN=C1c1ccc2nc(-c3ccc(Oc4ccccc4)cc3)oc2c1 (stereo not shown) [Example 95, 5-ethyl-6-[2-(4-phenoxy-phenyl)-benzoxazol-6-yl]-4,5-dihydro-2H-pyridazin-3-one] | 67 nM
CCC1CC(=O)NN=C1c1ccc2nc(-c3ccc(OC4CCN(C(=O)OC(C)(C)C)CC4)cc3)oc2c1 (stereo not shown) [Example 68, tert-butyl 4-{4-[6-(4-ethyl-6-oxo-1,4,5,6-tetrahydro-pyridazin-3-yl)-benzoxazol-2-yl]-phenoxy}-piperidin-1-carboxylate] | 60 nM
CCC[C@@H]1C(=O)NN=C(c2ccc3nc(-c4ccc(OCCN5C[C@@H](C)O[C@@H](C)C5)cc4)oc3c2)[C@H]1C [Example 223, Trans-6-(2-{4-[2-(2S,6R-dimethyl-morphoin-4-yl)-ethoxy]-phenyl}-benzoxazol-6-yl)-5-methyl-4-propyl-4,5-dihydro-2H-pyridazin-3-one] | 46 nM
CCC1CC(=O)NN=C1c1ccc2nc(-c3ccc(OCCN4CCCC4)cc3)oc2c1 (stereo not shown) [Example 159, 5-ethyl-6-{2-[4-(2-pyrrolidin-1-yl-ethoxy)-phenyl]-benzoxazol-6-yl}-4.5-dihydro-2H-pyridazin-3-one] | 623 nM
CCC1CC(=O)NN=C1c1ccc2nc(-c3ccc(OCC(C)O)cc3)oc2c1 (stereo not shown) [Example 211, 5-ethyl-6-{2-[4-(2-hydroxy-propoxy)-phenyl]-benzoxazol-6-yl}-4,5-dihydro-2H-pyridazin-3-one] | 395 nM
CCC1CC(=O)NN=C1c1ccc2nc(-c3ccc(OCCN(C)C)cc3)oc2c1 (stereo not shown) [Example 55, 6-{2-[4-(2-dimethylamino-ethoxy)-phenyl]-benzoxazol-6-yl}-5-ethyl-4,5-dihydro-2H-pyridazin-3-one] | 486 nM
CCC1CC(=O)NN=C1c1ccc2nc(-c3ccc(OCCN4CCC(F)CC4)cc3)oc2c1 (stereo not shown) [Example 248, 5-ethyl-6-(2-{4-[2-(4-fluoro-piperidin-1-yl)-ethoxy]-phenyl}-benzoxazol-6-yl)-4,5-dihydro-2H-pyridazin-3-one] | 159 nM
CC[C@@H]1CC(=O)NN=C1c1ccc2nc(-c3ccc(OC(C)C)cc3)oc2c1 [Example 193, (R)-5-ethyl-6-[2-(4-isopropoxy-phenyl)-benzoxazol-6-yl]-4,5-dihydro-2H-pyridazin-3-one] | 30 nM
CC1CC(=O)NN=C1c1ccc2nc(-c3cccc(C#N)c3)oc2c1 (stereo not shown) [Example 123, 3-[6-(4-methyl-6-oxo-1,4,5,6-tetrahydropyridazin-3-yl)-1,3-benzoxazol-2-yl]benzonitrile] | 902 nM
CCC1OC(=O)NN=C1N1CCc2nc(-c3ccccc3)oc2C1 (stereo not shown) [Example 205, 6-ethyl-5-(2-phenyl-6,7-dihydro-4H-oxazolo[5,4-c]pyridin-5-yl)-3,6-dihydro-[1,3,4]oxadiazin-2-one] | 50 nM
CCC1CC(=O)NN=C1c1ccc2nc(-c3ccc(OC(C)CO)cc3)oc2c1 (stereo not shown) [Example 251, 5-ethyl-6-{2-[4-(2-hydroxy-1-methyl-ethoxy)-phenyl]-benzoxazol-6-yl}-4,5-dihydro-2H-pyridazin-3-one] | 296 nM
CCC[C@H]1C(=O)NN=C(c2ccc3nc(-c4ccc(OCc5ccccc5)cc4)oc3c2)[C@H]1C (relative stereo) [Example 199, cis-6-[2-(4-benzoxy-phenyl)-benzoxazol-6-yl]-5-methyl-4-propyl-4,5-dihydro-2H-pyridazin-3-one] | 832 nM
CC1CC(=O)NN=C1c1ccc2nc(-c3cccc(Cl)c3)oc2c1 (stereo not shown) [Example 88, 6-[2-(3-chloro-phenyl)-benzoxazol-6-yl]-5-methyl-4,5-dihydro-2H-pyridazin-3-one] | 260 nM
Cc1cc(=O)[nH]nc1-c1ccc2nc(-c3cccs3)oc2c1 [Example 256, 5-methyl-6-(2-thiophen-2-yl-benzoxazol-6-yl)-2H-pyridazin-3-one] | 9380 nM
CCC1OC(=O)NN=C1c1ccc2nc(-c3ccccc3)oc2c1 (stereo in doubt) [Example 79, (S)-6-ethyl-5-(2-phenyl-benzoxazol-6-yl)-3,6-dihydro-[1,3,4]oxadiazin-2-one] | 41 nM
CCC1CC(=O)NN=C1c1ccc2nc(-c3ccc(OC[C@H]4CCCN4C(=O)OC(C)(C)C)cc3)oc2c1 (stereo partly shown) [Example 227] | 52 nM
Cc1ccc(-c2nc3ccc(C4=NNC(=O)CC4C)cc3o2)s1 (stereo not shown) [Example 87, 5-methyl-6-[2-(5-methyl-thiophen-2-yl)-benzoxazol-6-yl]-4,5-dihydro-2H-pyridazin-3-one] | 100 nM
O=C1NN=C(C2CCc3nc(-c4ccccc4)oc3C2)C2CC12 (stereo not shown) [Example 130, 5-(2-phenyl-4,5,6,7-tetrahydro-benzoxazol-6-yl)-3,4-diaza-bicyclo[4.1.0]hept-4-en-2-one] | 814 nM
CCC1CC(=O)NN=C1c1ccc2nc(-c3ccc(OCC(=O)NC)cc3)oc2c1 (stereo not shown) [Example 43, 2-{4-[6-(4-ethyl-6-oxo-1,4,5,6-tetrahydro-pyridazin-3-yl)-benzoxazol-2-yl]-phenoxy}-N-methyl-acetamide] | 1080 nM
